The source made the active and inactive calls.
Key:
[1] = Luminescence-based cell-based high throughput dose response assay to identify activators of the DAF-12 from the parasite S. stercoralis (ssDAF-12).; format: functional
[2] = biological target: T1, Oxysterols receptor LXR-beta (Homo sapiens, UniProt P55055); assay: LXR agonists, Gal4 luciferase reporter, dose response, counter-screen for ssDAF-12 agonist project, cell-based, luminescence, HEK293, S. stercoralis campaign (AID 720737); format: functional; conditions: read-out: IC50 (the source's name)
T1 sequence (P55055 whole entry): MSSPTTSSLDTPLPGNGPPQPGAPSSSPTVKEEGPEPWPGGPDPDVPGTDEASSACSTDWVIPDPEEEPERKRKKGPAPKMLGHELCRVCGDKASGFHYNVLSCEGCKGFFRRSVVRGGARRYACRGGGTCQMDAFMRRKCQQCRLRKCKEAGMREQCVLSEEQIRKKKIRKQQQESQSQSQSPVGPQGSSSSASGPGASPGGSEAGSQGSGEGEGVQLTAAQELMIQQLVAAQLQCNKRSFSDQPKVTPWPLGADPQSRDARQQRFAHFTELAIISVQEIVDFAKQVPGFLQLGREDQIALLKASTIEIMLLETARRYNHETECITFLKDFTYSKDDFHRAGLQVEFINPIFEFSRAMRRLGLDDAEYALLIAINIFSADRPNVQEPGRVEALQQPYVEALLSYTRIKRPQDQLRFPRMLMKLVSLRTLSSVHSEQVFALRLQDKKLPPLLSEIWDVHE

[3] = biological target: Kallikrein-7 (Homo sapiens, UniProt P49862); assay: Fluorescence Intensity-based biochemical primary high throughput dose response assay to identify activators of kallikrein-7 (K7) zymogen.
[4] = system: Streptococcus sp. 'group A'; assay: growth inhibition of control SK(-) GAS strain, dose response, counter-screen for streptokinase expression inhibitor project, luminescence, kanamycin, BacTiterGlo, confirmation (AID 1900); format: functional, organism-based; conditions: Streptococcus sp. 'group A'
[5] = biological target: T2, Streptokinase A (Streptococcus pyogenes serotype M1, UniProt P10520); assay: S. pyogenes streptokinase expression inhibitors, potency, dose response, plasminogen activation absorbance, OD405 (AID 1914); format: functional, Streptococcus pyogenes M1 GAS;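 note: secreted streptokinase activity via plasminogen activation per viability signal from cell pellet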
T2 sequence (P10520 whole entry): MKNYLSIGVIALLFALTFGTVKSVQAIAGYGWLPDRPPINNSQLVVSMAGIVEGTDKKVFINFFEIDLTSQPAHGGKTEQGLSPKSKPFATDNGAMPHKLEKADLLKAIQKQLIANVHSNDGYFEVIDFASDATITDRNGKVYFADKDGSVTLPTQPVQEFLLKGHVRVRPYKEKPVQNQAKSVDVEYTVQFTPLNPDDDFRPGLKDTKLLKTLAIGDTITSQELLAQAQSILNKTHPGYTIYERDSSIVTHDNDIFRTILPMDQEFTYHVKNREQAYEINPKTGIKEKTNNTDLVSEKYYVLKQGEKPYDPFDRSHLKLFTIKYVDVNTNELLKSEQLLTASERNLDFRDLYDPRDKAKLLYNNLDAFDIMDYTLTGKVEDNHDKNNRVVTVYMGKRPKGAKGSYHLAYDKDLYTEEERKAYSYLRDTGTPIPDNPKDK

[6] = system: Streptococcus; assay: Group A Streptococcus viability loss, dose response, counter-screen for streptokinase expression inhibitor project, luminescence, BacTiterGlo (AID 1915); format: functional, organism-based; conditions: Streptococcus;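 note: potency for reduction of bacterial viability or growth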
[7] = biological target: T3, Replicative DNA helicase DnaB (Mycobacterium tuberculosis, UniProt P9WMR3); assay: DnaB intein splicing inhibitors, dose response, biochemical, cell-free fluorescence (AID 449749); format: functional
T3 sequence (P9WMR3 whole entry): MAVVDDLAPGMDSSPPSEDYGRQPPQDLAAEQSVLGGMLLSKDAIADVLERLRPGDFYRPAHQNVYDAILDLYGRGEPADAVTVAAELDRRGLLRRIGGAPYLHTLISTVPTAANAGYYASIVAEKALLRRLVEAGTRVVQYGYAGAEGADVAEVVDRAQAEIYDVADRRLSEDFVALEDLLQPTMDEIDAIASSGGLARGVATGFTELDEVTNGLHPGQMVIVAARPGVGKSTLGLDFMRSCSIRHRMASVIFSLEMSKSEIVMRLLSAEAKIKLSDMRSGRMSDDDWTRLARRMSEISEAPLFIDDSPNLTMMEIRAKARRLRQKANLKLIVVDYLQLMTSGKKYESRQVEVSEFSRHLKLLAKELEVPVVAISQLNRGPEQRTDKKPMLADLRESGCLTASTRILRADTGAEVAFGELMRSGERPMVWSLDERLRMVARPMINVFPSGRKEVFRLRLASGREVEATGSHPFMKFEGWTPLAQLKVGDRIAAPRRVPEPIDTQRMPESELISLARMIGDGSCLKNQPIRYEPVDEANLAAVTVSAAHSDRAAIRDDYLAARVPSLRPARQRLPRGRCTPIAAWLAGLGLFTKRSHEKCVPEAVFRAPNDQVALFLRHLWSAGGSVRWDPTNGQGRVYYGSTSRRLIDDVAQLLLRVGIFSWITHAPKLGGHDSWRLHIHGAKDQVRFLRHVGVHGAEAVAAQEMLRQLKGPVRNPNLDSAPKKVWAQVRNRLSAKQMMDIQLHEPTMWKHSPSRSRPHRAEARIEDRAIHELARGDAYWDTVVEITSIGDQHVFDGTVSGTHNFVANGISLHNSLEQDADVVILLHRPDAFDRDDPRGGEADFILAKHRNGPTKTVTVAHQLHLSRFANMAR

[8] = biological target: T4, Protein RecA (Mycobacterium tuberculosis, UniProt P9WHJ3); assay: Fluorescence Cell-Free Homogeneous Dose Retest to Identify Inhibitors of RecA-Intein Splicing Activity. [Related pubchem assays (depositor defined):AID2097, AID2223, AID489010, AID492950]; format: functional
T4 sequence (P9WHJ3 whole entry): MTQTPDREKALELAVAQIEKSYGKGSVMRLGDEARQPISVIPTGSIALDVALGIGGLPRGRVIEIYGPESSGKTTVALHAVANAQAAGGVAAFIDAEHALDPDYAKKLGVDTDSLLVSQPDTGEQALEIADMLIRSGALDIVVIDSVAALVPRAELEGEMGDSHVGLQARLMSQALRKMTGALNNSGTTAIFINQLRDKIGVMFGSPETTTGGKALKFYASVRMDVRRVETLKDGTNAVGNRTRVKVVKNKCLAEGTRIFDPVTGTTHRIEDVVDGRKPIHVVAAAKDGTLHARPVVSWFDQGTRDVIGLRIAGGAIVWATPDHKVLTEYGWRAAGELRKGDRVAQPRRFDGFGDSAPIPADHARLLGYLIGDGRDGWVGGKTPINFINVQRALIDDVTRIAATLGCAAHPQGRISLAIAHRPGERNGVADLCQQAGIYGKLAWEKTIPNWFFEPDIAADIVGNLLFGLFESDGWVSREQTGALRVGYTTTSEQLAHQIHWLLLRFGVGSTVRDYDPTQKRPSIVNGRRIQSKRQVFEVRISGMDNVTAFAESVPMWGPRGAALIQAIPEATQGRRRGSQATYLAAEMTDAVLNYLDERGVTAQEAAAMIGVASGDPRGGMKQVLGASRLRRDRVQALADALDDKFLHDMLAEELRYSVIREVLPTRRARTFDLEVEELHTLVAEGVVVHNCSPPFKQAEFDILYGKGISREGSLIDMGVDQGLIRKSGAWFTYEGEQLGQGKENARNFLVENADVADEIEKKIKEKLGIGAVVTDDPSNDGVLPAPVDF

[9] = system: Vero; assay: cells; format: functional; conditions: Chlorocebus sabaeus
[10] = biological target: T5, Methionyl-tRNA synthetase, putative (Trypanosoma brucei brucei, UniProt Q38C91); format: functional, Trypanosoma brucei brucei strain 927/4 GUTat10.1
T5 sequence (Q38C91 whole entry): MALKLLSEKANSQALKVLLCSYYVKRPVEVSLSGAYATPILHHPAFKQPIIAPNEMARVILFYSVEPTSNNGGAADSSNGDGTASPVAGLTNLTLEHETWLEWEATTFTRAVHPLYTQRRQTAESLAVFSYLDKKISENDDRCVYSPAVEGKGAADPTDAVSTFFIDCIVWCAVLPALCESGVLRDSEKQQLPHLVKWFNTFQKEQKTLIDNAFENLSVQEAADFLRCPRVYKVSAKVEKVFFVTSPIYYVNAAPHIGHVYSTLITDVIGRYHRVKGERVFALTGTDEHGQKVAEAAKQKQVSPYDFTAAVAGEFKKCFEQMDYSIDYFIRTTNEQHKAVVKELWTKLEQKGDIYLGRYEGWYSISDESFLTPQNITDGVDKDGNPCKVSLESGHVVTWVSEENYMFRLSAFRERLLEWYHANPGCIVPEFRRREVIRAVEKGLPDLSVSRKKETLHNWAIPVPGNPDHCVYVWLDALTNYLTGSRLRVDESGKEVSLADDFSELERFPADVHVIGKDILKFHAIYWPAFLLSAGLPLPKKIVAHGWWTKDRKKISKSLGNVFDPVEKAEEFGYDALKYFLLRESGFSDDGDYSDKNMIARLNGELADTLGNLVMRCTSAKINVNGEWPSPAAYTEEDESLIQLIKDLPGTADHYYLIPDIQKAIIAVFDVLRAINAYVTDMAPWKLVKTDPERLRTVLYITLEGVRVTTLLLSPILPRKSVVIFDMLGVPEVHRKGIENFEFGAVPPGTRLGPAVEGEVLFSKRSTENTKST

[11] = Counterscreen for inhibitors of Trypanosoma brucei methionyl tRNA synthetase (MetRS): Luminescence-based cell-based high throughput dose response assay to identify compounds that are cytotoxic to Jurkat human T lymphocyte cells.; format: functional
[12] = biological target: T5, Methionyl-tRNA synthetase, putative; format: functional, Trypanosoma brucei brucei strain 927/4 GUTat10.1; remark: listed apart in the source
[13] = HepG2 cell cytotoxicity, dose response, cytotoxicity control, ATP luminescence, cherry-pick, activator set 2 (AID 1053143); format: functional, cell-based
[14] = system: HeLa; assay: HeLa cell cytotoxicity, dose response, cytotoxicity control, ATP luminescence, cherry-pick samples (AID 687004); format: functional, cell-based; conditions: Homo sapiens
[15] = system: HEK293; assay: HEK293T cell cytotoxicity, dose response, cytotoxicity control, ATP luminescence, cherry-pick samples (AID 687005); format: functional, cell-based; conditions: Homo sapiens;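 note: cells exposed to compound for 48 hours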
[16] = HEK293 Cytotoxicity Assay Measured in Cell-Based System Using Plate Reader - 7071-01_Inhibitor_Dose_CherryPick_Activity_Set2.; format: functional
[17] = biological target: 1-phosphatidylinositol 4,5-bisphosphate phosphodiesterase gamma-1 (Homo sapiens, UniProt P19174); assay: Counterscreen for inhibitors of phospholipase C isozymes (PLC-B3): Fluorescence-based biochemical high throughput dose response assay to identify inhibitors of phospholipase C isozymes (PLC-gamma1).
[18] = biological target: 1-phosphatidylinositol 4,5-bisphosphate phosphodiesterase beta-3 (Homo sapiens, UniProt Q01970); assay: Fluorescence-based biochemical high throughput dose response assay to identify inhibitors of phospholipase C isozymes (PLC-B3).
Chain of 1-phosphatidylinositol 4,5-bisphosphate phosphodiesterase beta-3 (Q01970 whole entry): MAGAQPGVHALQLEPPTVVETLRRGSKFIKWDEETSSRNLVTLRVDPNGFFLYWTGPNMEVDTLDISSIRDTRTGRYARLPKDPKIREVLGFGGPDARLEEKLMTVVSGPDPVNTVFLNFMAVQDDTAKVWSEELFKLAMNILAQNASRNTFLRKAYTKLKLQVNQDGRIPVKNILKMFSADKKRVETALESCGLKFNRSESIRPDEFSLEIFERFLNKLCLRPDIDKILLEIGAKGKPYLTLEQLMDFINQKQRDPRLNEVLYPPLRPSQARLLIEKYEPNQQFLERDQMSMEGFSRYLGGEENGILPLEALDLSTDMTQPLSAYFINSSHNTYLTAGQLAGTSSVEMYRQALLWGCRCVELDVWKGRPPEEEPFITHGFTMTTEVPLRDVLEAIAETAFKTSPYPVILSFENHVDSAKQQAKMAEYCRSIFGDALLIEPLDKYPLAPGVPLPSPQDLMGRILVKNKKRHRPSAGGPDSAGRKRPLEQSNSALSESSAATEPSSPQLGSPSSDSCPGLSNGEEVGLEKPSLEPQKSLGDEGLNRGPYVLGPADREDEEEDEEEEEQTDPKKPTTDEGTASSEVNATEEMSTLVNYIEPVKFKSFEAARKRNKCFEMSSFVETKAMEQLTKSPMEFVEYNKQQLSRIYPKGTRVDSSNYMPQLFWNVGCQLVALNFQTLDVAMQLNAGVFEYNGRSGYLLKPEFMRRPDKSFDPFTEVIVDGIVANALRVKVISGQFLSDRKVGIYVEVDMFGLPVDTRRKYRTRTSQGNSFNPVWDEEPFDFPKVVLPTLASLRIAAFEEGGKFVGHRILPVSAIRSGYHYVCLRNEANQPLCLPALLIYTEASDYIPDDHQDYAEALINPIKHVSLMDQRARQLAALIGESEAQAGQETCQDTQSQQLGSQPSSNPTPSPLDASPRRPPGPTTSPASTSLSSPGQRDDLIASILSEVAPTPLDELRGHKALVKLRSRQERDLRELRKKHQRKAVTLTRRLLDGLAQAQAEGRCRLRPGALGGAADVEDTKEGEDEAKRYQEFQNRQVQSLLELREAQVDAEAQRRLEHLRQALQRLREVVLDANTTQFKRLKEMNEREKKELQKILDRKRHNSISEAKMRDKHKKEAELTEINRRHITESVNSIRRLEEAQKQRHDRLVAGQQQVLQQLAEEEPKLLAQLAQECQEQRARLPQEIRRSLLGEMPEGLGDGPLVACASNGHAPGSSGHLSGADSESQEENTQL

Chain of 1-phosphatidylinositol 4,5-bisphosphate phosphodiesterase gamma-1 (P19174 whole entry): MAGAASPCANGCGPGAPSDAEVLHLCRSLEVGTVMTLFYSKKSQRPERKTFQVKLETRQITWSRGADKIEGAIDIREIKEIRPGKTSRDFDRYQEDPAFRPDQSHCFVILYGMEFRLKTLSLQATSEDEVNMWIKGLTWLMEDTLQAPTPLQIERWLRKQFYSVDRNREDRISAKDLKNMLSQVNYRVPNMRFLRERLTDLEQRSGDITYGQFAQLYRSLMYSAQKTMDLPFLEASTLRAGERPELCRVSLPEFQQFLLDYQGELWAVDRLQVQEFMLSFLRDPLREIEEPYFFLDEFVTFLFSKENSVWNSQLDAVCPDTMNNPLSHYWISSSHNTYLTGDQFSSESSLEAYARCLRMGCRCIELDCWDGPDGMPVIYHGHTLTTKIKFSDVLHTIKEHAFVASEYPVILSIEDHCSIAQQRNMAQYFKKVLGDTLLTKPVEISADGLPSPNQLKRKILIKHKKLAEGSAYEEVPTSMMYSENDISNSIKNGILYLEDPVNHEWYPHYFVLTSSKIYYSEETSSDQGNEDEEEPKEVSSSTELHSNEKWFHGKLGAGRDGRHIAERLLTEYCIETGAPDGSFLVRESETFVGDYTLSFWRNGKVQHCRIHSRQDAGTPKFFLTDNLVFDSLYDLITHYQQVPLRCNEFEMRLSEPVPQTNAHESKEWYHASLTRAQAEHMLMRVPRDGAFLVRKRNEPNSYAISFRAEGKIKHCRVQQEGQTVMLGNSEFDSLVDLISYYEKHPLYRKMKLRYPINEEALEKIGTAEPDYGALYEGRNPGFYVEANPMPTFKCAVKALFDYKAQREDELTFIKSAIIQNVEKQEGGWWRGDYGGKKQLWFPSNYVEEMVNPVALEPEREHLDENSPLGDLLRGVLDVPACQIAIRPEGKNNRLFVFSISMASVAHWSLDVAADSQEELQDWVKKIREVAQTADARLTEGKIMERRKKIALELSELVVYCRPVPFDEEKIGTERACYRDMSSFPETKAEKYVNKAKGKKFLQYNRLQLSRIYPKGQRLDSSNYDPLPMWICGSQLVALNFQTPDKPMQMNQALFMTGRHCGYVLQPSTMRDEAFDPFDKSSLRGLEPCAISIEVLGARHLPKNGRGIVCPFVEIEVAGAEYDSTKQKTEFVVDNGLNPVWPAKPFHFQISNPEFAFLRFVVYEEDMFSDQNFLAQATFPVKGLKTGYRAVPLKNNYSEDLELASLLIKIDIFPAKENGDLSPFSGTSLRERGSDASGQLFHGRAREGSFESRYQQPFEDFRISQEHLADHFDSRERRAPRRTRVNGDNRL
Chain of Kallikrein-7 (P49862 whole entry): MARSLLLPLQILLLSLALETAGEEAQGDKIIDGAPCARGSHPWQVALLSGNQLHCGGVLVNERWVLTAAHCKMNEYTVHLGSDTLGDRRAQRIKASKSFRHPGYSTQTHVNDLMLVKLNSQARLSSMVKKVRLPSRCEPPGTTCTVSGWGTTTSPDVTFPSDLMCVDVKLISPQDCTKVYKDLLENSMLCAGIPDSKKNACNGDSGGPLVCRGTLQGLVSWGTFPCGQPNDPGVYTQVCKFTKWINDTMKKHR

Cc1ccc2nsnc2c1NC(=O)c1cccnc1Cl
IC50 [1]: > 67.5 µM (inactive)
EC50 [2]: > 67.5 µM (inactive)

O=C(Nc1c(-c2ccccc2)nc2ncccn12)c1ccccc1
EC50 [3]: > 69.6 µM (inactive)

Cc1[nH]c2ccccc2c1/C=N/Nc1nc2ccccc2[nH]1
EC50 [4]: 7.74 µM (active)
EC50 [5]: > 150 µM (not active)
EC50 [6]: 9.86 µM (active)
AC50 [7]: > 380 µM (inactive)
EC50 [8]: 39.3 µM (active)
CC50 [9]: > 25 µM (active)
IC50 [10]: 17.1 µM (inactive)
IC50 [11]: 36.2 µM (inactive)
IC50 [12]: 36.9 µM (inactive)
AC50 [13]: 26 µM (active)

CC(C)(C)c1ccc(OCC(=O)NC(c2ccccc2)c2ccccc2)cc1
AC50 [14]: > 70 µM (inactive)
AC50 [15]: 3.2 µM (active)
AC50 [16]: 3.2 µM (active)

Cc1ccccc1C(=O)NC1CCN(Cc2nnnn2C2CCCC2)CC1
IC50 [17]: > 122 µM (inactive)
IC50 [18]: > 122 µM (inactive)

O=Cc1cc(N=Nc2ccc(S(=O)(=O)O)cc2)ccc1O
IC50 [17]: 39.3 µM (inactive)
IC50 [18]: > 122 µM (inactive)

COc1ccc(C2Nc3ccccc3C(=O)N2NS(C)(=O)=O)cc1OC (stereo unspecified)
EC50 [3]: 38.8 µM (inactive)
